The assay has as its target T1, protein-protein interaction between SOS1 and KRAS-G12D (Homo sapiens, UniProt Q07889).
T1 construct: The purified GST-SOS1 catalytic domain (residues 564-1049) was first diluted in assay buffer; made in house; host or cells: E. coli BL21 (DE3) for SOS1; E. coli BL21 carrying a BirA plasmid for KRAS-G12D
T1 sequence (Q07889 564-1049): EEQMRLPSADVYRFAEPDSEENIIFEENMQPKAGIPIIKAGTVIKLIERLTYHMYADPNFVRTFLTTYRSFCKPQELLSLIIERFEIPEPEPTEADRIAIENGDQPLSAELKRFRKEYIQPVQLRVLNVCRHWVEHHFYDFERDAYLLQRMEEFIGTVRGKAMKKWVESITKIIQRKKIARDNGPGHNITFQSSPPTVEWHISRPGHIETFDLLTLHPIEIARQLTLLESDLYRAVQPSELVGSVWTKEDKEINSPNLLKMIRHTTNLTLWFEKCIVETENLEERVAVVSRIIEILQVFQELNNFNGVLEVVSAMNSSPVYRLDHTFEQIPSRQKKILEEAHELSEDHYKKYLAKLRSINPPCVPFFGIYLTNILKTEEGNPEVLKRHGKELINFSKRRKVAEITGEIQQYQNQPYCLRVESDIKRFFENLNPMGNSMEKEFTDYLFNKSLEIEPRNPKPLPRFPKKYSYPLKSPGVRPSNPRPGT
In words: HTRF Based Protein-Protein Interaction Assay. Particulars: HTRF; GST-SOS1 2.5 nM, KRAS-G12D 100 nM, GDP 10 uM; read-out: IC50 value, inhibition of SOS1/KRAS-G12D protein-protein interaction. The format is binding. In a few lines:
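GST-SOS1 (residues 564-1049, 2.5 nM) preincubated 15 min at 25° C with compound (0.5 nM-10 μM, 3-fold), then biotinylated avi-KRAS-G12D (1-169, 100 nM) with 10 uM GDP added for 60 min. HTRF read after 5 h with anti-GST-Tb cryptate/streptavidin-XL665; buffer HEPES pH 7.5, Brij-35, TCEP, BSA.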
(In general: TR-FRET usually uses a lanthanide donor and a delayed reading to cut background.)

The structures appear in SMILES notation.

As to `C#C[C@@H](Nc1nc(C)nc2cc(=O)n(C3CCOCC3)cc12)c1cccc(C(F)(F)F)c1C` [Compound 4, (R)-2-methyl-4-((1-(2-methyl-3-(trifluoromethyl)phenyl)prop-2-yn-1-yl)amino)-6-(tetrahydro-2H-pyran-4-yl)pyrido[4,3-d]pyrimidin-7(6H)-one], the IC50 is < 100 nM. For `C#C[C@@H](Nc1nc(C)nc2c1cc(C1(O)CCN(C(C)=O)CC1)c(=O)n2C)c1cccc(C(F)(F)F)c1C` [Compound 54, 6-(1-acetyl-4-hydroxypiperidin-4-yl)-2,8-dimethyl-4-{[(1R)-1-[2-methyl-3-(trifluoromethyl)phenyl]prop-2-yn-1-yl]amino}-7H,8H-pyrido[2,3-d]pyrimidin-7-one] the value was < 100 nM; for `C#C[C@@H](Nc1nc(C)nc2c1cc(C1(OC)CCN(C(C)=O)CC1)c(=O)n2C)c1cccc(C(F)(F)F)c1C` [Compound 55, 6-(1-acetyl-4-methoxypiperidin-4-yl)-2,8-dimethyl-4-{[(1R)-1-[2-methyl-3-(trifluoromethyl)phenyl]prop-2-yn-1-yl]amino}-7H,8H-pyrido[2,3-d]pyrimidin-7-one], < 100 nM; for `C#C[C@@H](Nc1nc(C)nc2c1cc(C1(F)CCN(C(C)=O)CC1)c(=O)n2C)c1cccc(C(F)(F)F)c1C` [Compound 56, 6-(1-acetyl-4-fluoropiperidin-4-yl)-2,8-dimethyl-4-{[(1R)-1-[2-methyl-3-(trifluoromethyl)phenyl]prop-2-yn-1-yl]amino}-7H,8H-pyrido[2,3-d]pyrimidin-7-one], < 100 nM. The result for `C#C[C@@H](Nc1ncnc2c1cc(C1(NC(C)=O)CCOCC1)c(=O)n2C)c1cccc(C(F)(F)F)c1C` [Compound 58, (R)-N-(4-(8-methy-4-((1-(2-methyl-3-(trifluoromethyl)phenyl)prop-2-yn-1-yl}amino)-7-oxo-7,8-dihydropyrido[2,3-d]pyrimidin-6-yl)tetrahydro-2H-pyran-4-yl)acetamide] reads 100 to 200 nM; that for `C#C[C@@H](Nc1ncnc2c1cc(C1(NC(C)=O)CCN(C(C)=O)CC1)c(=O)n2C)c1cccc(C(F)(F)F)c1C` [Compound 57, (R)-N-(1-acetyl-4-(8-methy-4-((1-(2-methyl-3-(trifluoromethyl)phenyl)prop-2-yn-1-yl)amino)-7-oxo-7,8-dihydropyrido[2,3-d]pyrimidin-6-yl)piperidin-4-yl)acetamide], < 100 nM. For `C#C[C@@H](Nc1ncnc2c1cc(C1(O)CCN(C(C)=O)CC1)c(=O)n2C)c1cccc(C(F)F)c1F` [Compound 46, 6-(1-acetyl-4-hydroxypiperidin-4-yl)-4-{[(1R)-1-[3-(difluoromethyl)-2-fluorophenyl]prop-2-yn-1-yl]amino}-8-methyl-7H,8H-pyrido[2,3-d]pyrimidin-7-one] the value was < 100 nM. Take `C#C[C@@H](Nc1ncnc2c1cc(C1(O)CCN(C(C)=O)C1)c(=O)n2C)c1cccc(C(F)F)c1F` (stereo partly drawn) [Compound 43, 6-(1-acetyl-3-hydroxypyrrolidin-3-yl)-4-{[(1R)-1-[3-(difluoromethyl)-2-fluorophenyl]prop-2-yn-1-yl]amino}-8-methyl-7H,8H-pyrido[2,3-d]pyrimidin-7-one]: the IC50 lay within 100 to 200 nM. For `C#C[C@@H](Nc1nc(C)nc2cc(=O)n(C3(C(F)F)CC3)cc12)c1cccc(C(F)(F)F)c1C` [Compound 9, (R)-6-(1-(difluoromethyl)cyclopropyl)-2-methyl-4-((1-(2-methyl-3-(trifluoromethyl)phenyl)prop-2-yn-1-yl)amino)pyrido[4,3-d]pyrimidin-7(6H)-one] the value was < 100 nM. Regarding `C#C[C@@H](Nc1ncnc2c1cc(C1(OC)CCN(C(C)=O)C1)c(=O)n2C)c1cccc(C(F)F)c1F` (stereo partly drawn) [Compound 49, 6-(1-acetyl-3-methoxypyrrolidin-3-yl)-4-{[(1R)-1-[3-(difluoromethyl)-2-fluorophenyl]prop-2-yn-1-yl]amino}-8-methyl-7H,8H-pyrido[2,3-d]pyrimidin-7-one], the IC50 is < 100 nM. For `C#C[C@@H](Nc1ncnc2c1cc(C1(OC)CCN(C(C)=O)CC1)c(=O)n2C)c1cccc(C(F)F)c1F` [Compound 48, (R)-6-(1-acetyl-4-methoxypiperidin-4-yl)-4-((1-(3-(difluoromethyl)-2-fluorophenyl)prop-2-yn-1-yl)amino)-8-methylpyrido[2,3-d]pyrimidin-7(8H)-one] the value was 100 to 200 nM.

The values above are taken from patent publication US20220324862A1, “PYRIDOPYRIMIDINONE COMPOUNDS” (Acerand Therapeutics (USA) Limited, priority 2021, published 2022).
